Format in all cases: functional
The subject of test [1] is Cryptococcus neoformans. Description: Antifungal activity against Cryptococcus neoformans KCCM 50564 after 1 day by broth dilution method. Conditions: KCCM 50564, 24 h. (In general: Dilution methods test growth across graded concentrations, often in twofold steps.)
Test [2] relates to Aspergillus flavus. Description: Antifungal activity against Aspergillus flavus KCCM 11899 after 2 days by broth dilution method.
For test [3], the system named is Pichia kudriavzevii. Description: Antifungal activity against Candida krusei Berkout KCCM 11655 after 1 day by broth dilution method. Conditions: KCCM 11655, 24 h.
For test [4], the system named is Candida tropicalis. As to the kind of experiment: Antifungal activity against Candida tropicalis Berkout KCCM 50662 after 1 day by broth dilution method.
In test [5] the test system is Aspergillus niger. As to the kind of experiment: Antifungal activity against Aspergillus niger KCTC 1231 after 2 days by broth dilution method.
For test [6], the system named is Candida albicans. Description: Antifungal activity against Candida albicans Berkout KCCM 50235 after 1 day by broth dilution method. Conditions: KCCM 50235, 24 h.
[7] abbreviates: Aspergillus flavus, KCCM 11899, 48 h, read-out: MIC.
Setting [8] is: Candida tropicalis, KCCM 50662, 24 h, read-out: MIC.
[9] abbreviates: Aspergillus niger, KCTC 1231, 48 h, read-out: MIC.

Each structure is given as a SMILES string. Values after ≈ are worked out from the molar mass of the structure shown.

As usually defined, the MIC is the lowest concentration found to suppress growth.

In the case of `O=C1C(Cl)=C(Nc2ccccc2)C(=O)c2cnncc21`, the MIC came to 3.2 µg/mL (≈ 11.2 µM) in test [1]; 25 µg/mL (≈ 87.5 µM) in test [2] (setting [7]); 25 µg/mL (≈ 87.5 µM) in test [3]; 25 µg/mL (≈ 87.5 µM) in test [4] (setting [8]); 100 µg/mL (≈ 350 µM) in test [5] (setting [9]); 50 µg/mL (≈ 175 µM) in test [6].

Regarding `O=C1C(Cl)=C(Nc2ccc(F)cc2)C(=O)c2cnncc21`, the MIC was 6.3 µg/mL (≈ 20.7 µM) in test [1]; over 100 µg/mL in test [2] (setting [7]); 50 µg/mL (≈ 165 µM) in test [3]; 50 µg/mL (≈ 165 µM) in test [4] (setting [8]); over 100 µg/mL in test [5] (setting [9]); 50 µg/mL (≈ 165 µM) in test [6].

Turning to `O=C1C(Cl)=C(Nc2ccc(Cl)cc2)C(=O)c2cnncc21`, the MIC is 100 µg/mL (≈ 312 µM) in test [1]; over 100 µg/mL in test [2] (setting [7]); 6.3 µg/mL (≈ 19.7 µM) in test [3]; 12.5 µg/mL (≈ 39 µM) in test [4] (setting [8]); over 100 µg/mL in test [5] (setting [9]); 12.5 µg/mL (≈ 39 µM) in test [6].

Consider `O=C1C(Sc2ccc(F)c(F)c2)=C(Sc2ccc(F)c(F)c2)C(=O)c2cnncc21`, for which the MIC in test [1] was 100 µg/mL (≈ 223 µM); in test [2] (setting [7]) it was 25 µg/mL (≈ 55.8 µM); in test [3] it was over 100 µg/mL; in test [4] (setting [8]), 12.5 µg/mL (≈ 27.9 µM); in test [5] (setting [9]) it was 3.2 µg/mL (≈ 7.14 µM); in test [6], 3.2 µg/mL (≈ 7.14 µM).

Turning to `O=C1C(Sc2ccc(F)cc2)=C(Sc2ccc(F)cc2)C(=O)c2cnncc21`, the MIC in test [1] is over 100 µg/mL; in test [2] (setting [7]), over 100 µg/mL; in test [3], 100 µg/mL (≈ 242 µM); in test [4] (setting [8]), 6.3 µg/mL (≈ 15.3 µM); in test [5] (setting [9]), 12.5 µg/mL (≈ 30.3 µM); in test [6] it was 6.3 µg/mL (≈ 15.3 µM).

Take `COc1ccc(SC2=C(Sc3ccc(OC)cc3)C(=O)c3cnncc3C2=O)cc1`: the MIC in test [1] is over 100 µg/mL; in test [2] (setting [7]), over 100 µg/mL; in test [3] it was 100 µg/mL (≈ 229 µM); in test [4] (setting [8]), 100 µg/mL (≈ 229 µM); in test [5] (setting [9]), 12.5 µg/mL (≈ 28.6 µM); in test [6] it was 25 µg/mL (≈ 57.3 µM).

Regarding `O=C1C(Cl)=C(Nc2ccc(I)cc2)C(=O)c2cnncc21`, the MIC in test [1] was 100 µg/mL (≈ 243 µM); in test [2] (setting [7]) it was 50 µg/mL (≈ 121 µM); in test [3], 12.5 µg/mL (≈ 30.4 µM); in test [4] (setting [8]), 12.5 µg/mL (≈ 30.4 µM); in test [5] (setting [9]), over 100 µg/mL; in test [6], 12.5 µg/mL (≈ 30.4 µM).

`Nc1cccc2cnncc12`: the MIC in test [1] was 25 µg/mL (≈ 172 µM); in test [2] (setting [7]), 100 µg/mL (≈ 689 µM); in test [3], 100 µg/mL (≈ 689 µM); in test [4] (setting [8]), over 100 µg/mL; in test [5] (setting [9]) it was over 100 µg/mL; in test [6] it was over 100 µg/mL.

For the molecule `O=C1C=C(Nc2ccc(Br)cc2)C(=O)c2cnncc21`, the MIC was 12.5 µg/mL (≈ 37.9 µM) in test [1]; 50 µg/mL (≈ 151 µM) in test [2] (setting [7]); 12.5 µg/mL (≈ 37.9 µM) in test [3]; 3.2 µg/mL (≈ 9.69 µM) in test [4] (setting [8]); 50 µg/mL (≈ 151 µM) in test [5] (setting [9]); 12.5 µg/mL (≈ 37.9 µM) in test [6].

As for `O=C1C(Sc2ccc(Br)cc2)=C(Sc2ccc(Br)cc2)C(=O)c2cnncc21`, the MIC was over 100 µg/mL in test [1]; 50 µg/mL (≈ 93.6 µM) in test [2] (setting [7]); over 100 µg/mL in test [3]; 50 µg/mL (≈ 93.6 µM) in test [4] (setting [8]); over 100 µg/mL in test [5] (setting [9]); 50 µg/mL (≈ 93.6 µM) in test [6].

As for `O=C1C(Cl)=C(Nc2ccc(F)c(F)c2)C(=O)c2cnncc21`, the MIC was 50 µg/mL (≈ 155 µM) in test [1]; 100 µg/mL (≈ 311 µM) in test [2] (setting [7]); over 100 µg/mL in test [3]; 3.2 µg/mL (≈ 9.95 µM) in test [4] (setting [8]); 100 µg/mL (≈ 311 µM) in test [5] (setting [9]); 25 µg/mL (≈ 77.7 µM) in test [6].

On to `O=C1C(Cl)=C(Nc2cccc(C(F)(F)F)c2)C(=O)c2cnncc21`, for which the MIC in test [1] was 50 µg/mL (≈ 141 µM); in test [2] (setting [7]), 50 µg/mL (≈ 141 µM); in test [3], 100 µg/mL (≈ 283 µM); in test [4] (setting [8]), 12.5 µg/mL (≈ 35.3 µM); in test [5] (setting [9]) it was 50 µg/mL (≈ 141 µM); in test [6], 25 µg/mL (≈ 70.7 µM).

On to `Cc1ccc(NC2=CC(=O)c3cnncc3C2=O)cc1C`, for which the MIC was 25 µg/mL (≈ 89.5 µM) in test [1]; over 100 µg/mL in test [2] (setting [7]); 50 µg/mL (≈ 179 µM) in test [3]; 100 µg/mL (≈ 358 µM) in test [4] (setting [8]); over 100 µg/mL in test [5] (setting [9]); 3.2 µg/mL (≈ 11.5 µM) in test [6].

For `O=C1C(Sc2ccccc2)=C(Sc2ccccc2)C(=O)c2cnncc21`, the minimum inhibitory concentration (MIC) in test [2] was 100 µg/mL (≈ 266 µM); in test [2] (setting [7]), over 100 µg/mL; in test [4] it was over 100 µg/mL; in test [4] (setting [8]), 100 µg/mL (≈ 266 µM); in test [5] it was 6.3 µg/mL (≈ 16.7 µM); in test [5] (setting [9]), 6.3 µg/mL (≈ 16.7 µM).

Turning to `O=C1C(Cl)=C(Nc2cccc(Cl)c2)C(=O)c2cnncc21`, the MIC in test [1] turned out to be 3.2 µg/mL (≈ 10 µM); in test [2] (setting [7]), 25 µg/mL (≈ 78.1 µM); in test [3], 25 µg/mL (≈ 78.1 µM); in test [4] (setting [8]), 25 µg/mL (≈ 78.1 µM); in test [5] (setting [9]), 12.5 µg/mL (≈ 39 µM); in test [6] it was 25 µg/mL (≈ 78.1 µM).

`Cc1ccc(NC2=CC(=O)c3cnncc3C2=O)cc1`: the MIC was determined as 6.3 µg/mL (≈ 23.7 µM) in test [1]; 25 µg/mL (≈ 94.2 µM) in test [2] (setting [7]); 12.5 µg/mL (≈ 47.1 µM) in test [3]; 12.5 µg/mL (≈ 47.1 µM) in test [4] (setting [8]); 50 µg/mL (≈ 188 µM) in test [5] (setting [9]); 6.3 µg/mL (≈ 23.7 µM) in test [6].

With `O=C1C(Sc2ccc(O)cc2)=C(Sc2ccc(O)cc2)C(=O)c2cnncc21`, the MIC in test [1] is over 100 µg/mL; in test [2] (setting [7]) it was over 100 µg/mL; in test [3], over 100 µg/mL; in test [4] (setting [8]), over 100 µg/mL; in test [5] (setting [9]), over 100 µg/mL; in test [6] it was 100 µg/mL (≈ 245 µM).

As to `Cc1cccc(SC2=C(Sc3cccc(C)c3)C(=O)c3cnncc3C2=O)c1`, the minimum inhibitory concentration (MIC) in test [1] is over 100 µg/mL; in test [2] (setting [7]) it was 100 µg/mL (≈ 247 µM); in test [3] it was over 100 µg/mL; in test [4] (setting [8]), 50 µg/mL (≈ 124 µM); in test [5] (setting [9]) it was 6.3 µg/mL (≈ 15.6 µM); in test [6], 12.5 µg/mL (≈ 30.9 µM).

With `Nc1ccc(N)c2cnncc12`, the MIC is 6.3 µg/mL (≈ 39.3 µM) in test [1]; 100 µg/mL (≈ 624 µM) in test [2] (setting [7]); 100 µg/mL (≈ 624 µM) in test [3]; over 100 µg/mL in test [4] (setting [8]); over 100 µg/mL in test [5] (setting [9]); over 100 µg/mL in test [6].

As to `O=C1C=C(Nc2ccc(F)cc2)C(=O)c2cnncc21`, the MIC in test [1] was 6.3 µg/mL (≈ 23.4 µM); in test [2] (setting [7]), 100 µg/mL (≈ 371 µM); in test [3] it was 25 µg/mL (≈ 92.9 µM); in test [4] (setting [8]) it was 25 µg/mL (≈ 92.9 µM); in test [5] (setting [9]), over 100 µg/mL; in test [6], 50 µg/mL (≈ 186 µM).

For `COc1ccc(NC2=CC(=O)c3cnncc3C2=O)cc1`, the minimum inhibitory concentration (MIC) in test [1] was 6.3 µg/mL (≈ 22.4 µM); in test [2] (setting [7]), 25 µg/mL (≈ 88.9 µM); in test [3], 12.5 µg/mL (≈ 44.4 µM); in test [4] (setting [8]), 6.3 µg/mL (≈ 22.4 µM); in test [5] (setting [9]), 25 µg/mL (≈ 88.9 µM); in test [6], 12.5 µg/mL (≈ 44.4 µM).

In the case of `O=C1C(Cl)=C(Nc2ccc(Br)cc2)C(=O)c2cnncc21`, the MIC in test [1] is 3.2 µg/mL (≈ 8.78 µM); in test [2] (setting [7]), 25 µg/mL (≈ 68.6 µM); in test [3], 25 µg/mL (≈ 68.6 µM); in test [4] (setting [8]), 12.5 µg/mL (≈ 34.3 µM); in test [5] (setting [9]) it was 25 µg/mL (≈ 68.6 µM); in test [6] it was 25 µg/mL (≈ 68.6 µM).

As to `O=C1C(Sc2cccc(Cl)c2)=C(Sc2cccc(Cl)c2)C(=O)c2cnncc21`, the MIC in test [1] was over 100 µg/mL; in test [2] (setting [7]), over 100 µg/mL; in test [3], over 100 µg/mL; in test [4] (setting [8]) it was 100 µg/mL (≈ 225 µM); in test [5] (setting [9]), 6.3 µg/mL (≈ 14.1 µM); in test [6], 12.5 µg/mL (≈ 28.1 µM).

As to `Nc1nc(=O)[nH]cc1F` [FLUCYTOSINE], the MIC in test [1] is 12.5 µg/mL (≈ 96.8 µM); in test [2] (setting [7]) it was 100 µg/mL (≈ 775 µM); in test [3], 50 µg/mL (≈ 387 µM); in test [4] (setting [8]), 12.5 µg/mL (≈ 96.8 µM); in test [5] (setting [9]), 25 µg/mL (≈ 194 µM); in test [6], 25 µg/mL (≈ 194 µM).

The values are drawn from ChEMBL document CHEMBL1139171, “Synthesis and antifungal activity of 6-arylamino-phthalazine-5,8-diones and 6,7-bis(arylthio)-phthalazine-5,8-diones” (2007).
